pIC50: −log10 of the molar value. Activity calls are given as the source filed them. No rule for the calls is given here.

The assay concerns HEK-293T NF-kB luciferase reporter, luminescence counterscreen. In words: NF-kB reporter suppression in HEK-293T cells – luminescence, B-cell screen hits, counter-screen for BCR NF-kB inhibitor project, dose response (AID 489022).
As to `Cc1ccc(Nc2nc(N/N=C\c3ccc4c(c3)OCO4)nc(N3CCOCC3)n2)cc1`, the IC50 (commonly the concentration that gives 50% inhibition) was > 80 µM (inactive).

For `O=C(CCl)N1CCN(S(=O)(=O)c2ccc3c(c2)CCC3)CC1`, the IC50 was 41.9 µM (inactive).

Take `CC1CCN(c2c(NCc3ccc(C(=O)N4c5ccccc5CC4C)cc3)c(=O)c2=O)CC1` (stereo not given): the pIC50 (in general, the IC50 on a negative log10 scale, so that one unit is a factor of ten) was 5.06.

As for `Cc1cc(OCC(=O)Nc2ccc(CCO)cc2)c2c(C)c(C)c(=O)oc2c1`, the IC50 is > 80 µM (inactive).

Take `CCC(C)(C)c1ccc(OCCCC[n+]2ccccc2)c(C(C)(C)CC)c1`: the pIC50 was 5.06.

Regarding `COC(=O)[C@@]12OC[C@]34[C@H]([C@@H](O)[C@@H]1O)[C@@]1(C)C(=O)C(O[C@@H]5OC(CO)[C@@H](O)[C@@H](O)[C@@H]5O)=C[C@@H](C)[C@@H]1C[C@H]3OC(=O)[C@H](OC(=O)/C=C(\C)C(C)(C)OC(C)=O)[C@@H]24` (stereo not given in full), the pIC50 is 5.49.

Consider `CCOc1ccc(/C=C2\SC(=S)N(CCCC(=O)NCCCN3CCOCC3)C2=O)cc1`, for which the IC50 was > 80 µM (inactive).

Turning to `CCCNC(=O)c1ccc(N2CCC3(CC2)CC(c2cccc(Br)c2)=NO3)c(NC(=O)c2ccc(Cl)c([N+](=O)[O-])c2)c1`, the IC50 is > 80 µM (inactive).

For the molecule `Cc1c(CCC(=O)N2CCC(C(=O)O)CC2)c(=O)oc2cc3oc4c(c3cc12)CCCC4`, the pIC50 was 4.89.

Turning to `CCn1c(=O)cc(SCC(=O)N2CCC(C)CC2)c2ccccc21`, the IC50 is 70.9 µM (inactive).

As for `CC(C)OCCCNC(=O)c1c(N)n(/N=C/c2ccccn2)c2nc3ccccc3nc12`, the IC50 was > 80 µM (inactive).

Consider `Cc1cc(C)cc(N2C(=O)NC(=O)/C(=C\c3cccn3-c3ccccc3)C2=O)c1`, for which the IC50 was > 80 µM (inactive).

As for `Cc1ccc(/C=C2/SC(=S)N(CCCC(=O)Nc3ccc(O)cc3)C2=O)cc1`, the IC50 is > 80 µM (inactive).

For `COc1cc(-c2cc(=O)c3c(O)c(OC)c(OC)c(OC)c3o2)cc(OC)c1OC`, the IC50 was > 80 µM (inactive).

In the case of `COC(=O)c1[nH]c2ccc(C)cc2c1NC(=O)Nc1ccccc1OC`, the IC50 is > 80 µM (inactive).

In the case of `COc1ccc(NC(=O)c2cc(-c3ccccn3)nc3ccccc23)cc1S(=O)(=O)N(C)C`, the IC50 was 51.4 µM (inactive).

As to `Cc1ccc(Nc2nc(N3CCOCC3)nc(N3CCOCC3)n2)cc1C`, the IC50 is 51.4 µM (inactive).

As for `COc1ccc(-c2nsc(SCC(=O)Nc3cc(C)on3)n2)cc1`, the IC50 is > 80 µM (inactive).

For `CNC(=O)CSc1nc2nn(-c3ccccc3)c(=O)c-2c2n1CCCCC2`, the IC50 was > 80 µM (inactive).

In the case of `Cc1nn(C(C)(C)C)c(C)c1/C=N/OC(=O)Nc1ccc(Cl)c(Cl)c1`, the pIC50 is above 6.80.

For `CC(C)CCNC(=O)CCCOc1cc(=O)n(C)c2ccccc12`, the IC50 is 60.7 µM (inactive).

As for `COc1ccc(-n2ncc3c(N4CCC(C(N)=O)CC4)ncnc32)cc1`, the IC50 is > 80 µM (inactive).

In the case of `Cc1cc(OCC(=O)N2CCC(C(N)=O)CC2)c2c3c(c(=O)oc2c1)CCCC3`, the IC50 was > 80 µM (inactive).

Take `Cc1ccc(Sc2cc(NCCCO)c([N+](=O)[O-])c3nonc23)cc1`: the IC50 was > 80 µM (inactive).

Consider `Cc1cc(N(C)C)ccc1N=Nc1ccc(N)cc1`, for which the IC50 is 64.3 µM (inactive).

`Cc1nn(-c2ccc(N3CCCCC3)nn2)c(C)c1CCC(=O)Nc1ccccc1F`: the IC50 was 73.3 µM (inactive).

For `Cc1nn(C(C)(C)C)c(OC(=O)c2ccc(Br)o2)c1Sc1ccccc1`, the IC50 is 53.8 µM (inactive).

As to `CN1C(=O)c2cccc3c(S(=O)(=O)Nc4ccccc4F)ccc1c23`, the IC50 is 69.7 µM (inactive).

As for `Cc1cnc(NC(=O)Nc2ccc(Cl)cc2)s1`, the IC50 is > 80 µM (inactive).

Turning to `CC(C)CN(C(=O)COC(=O)C12CC3CC(CC(C3)C1)C2)c1c(N)n(Cc2ccccc2)c(=O)[nH]c1=O`, the pIC50 is 4.97.

As for `CCn1c(=O)cc(SCC(=O)N2CCN(C(=O)c3ccco3)CC2)c2ccccc21`, the IC50 is 40.9 µM (inactive).

In the case of `CC(C)Cn1c([N+](=O)[O-])nc2c1c(=O)[nH]c(=O)n2C`, the IC50 is 37 µM (inactive).

Take `CCCCn1c2c(c(=N)c3ccccc31)CCC2`: the IC50 is 40.8 µM (inactive).

Take `C=CCOC(=O)COc1cc(C)cc2oc(=O)c3c(c12)CCC3`: the IC50 is > 80 µM (inactive).

In the case of `Cc1cccc(C(=O)Nc2ccc(CC(=O)O)cc2)c1`, the IC50 was 45.2 µM (inactive).

As for `Cc1ccc(/C=C2\SC(=S)N(CCCC(=O)Nc3cccnc3)C2=O)cc1`, the IC50 is 51.8 µM (inactive).

For the molecule `Cc1ccc(S(=O)(=O)Nc2ccc3c(c2)n(C)c(=O)n3C)cc1`, the IC50 is 65.2 µM (inactive).

As to `CC1=CC(C)(C)Nc2ccc(OC(=O)CN3C(=O)c4ccccc4C3=O)cc21`, the pIC50 was 5.03.

Turning to `Cc1csc(NC(=O)/C=C/c2ccc3c(c2)OCO3)n1`, the IC50 was > 80 µM (inactive).

For `Cc1ccccc1-n1c(SCc2c(C)noc2C)nnc1-c1c[nH]c2ccccc12`, the IC50 is 33.8 µM (inactive).

As to `COc1ccc(C(=O)N/N=C/c2ccc(OC)c(CN3CCCc4ccccc43)c2)cc1`, the IC50 is > 80 µM (inactive).

Consider `O=S(=O)(NCc1ccncc1)c1ccc(Br)s1`, for which the pIC50 is 6.07.

For `Cc1noc(C)c1CSc1nc2[nH]ncc2c(=O)n1-c1ccccc1`, the negative logarithm of the IC50 (pIC50) was 5.11.

Take `Cc1cc(NC(=O)CCCN2C(=O)/C(=C/c3ccccc3Cl)SC2=S)no1`: the IC50 was > 80 µM (inactive).

For the molecule `Cc1cc(C)c2nc(NC(=O)C3CSC4(C)CCC(=O)N34)sc2c1` (stereo not given), the IC50 was > 80 µM (inactive).

For `N=c1ccn2c(n1)OC1C(O)C(CO)OC12` (stereo not given), the IC50 is > 80 µM (inactive).

Consider `O=C(CSCCO)Nc1ccc(C23CC4CC(CC(C4)C2)C3)cc1`, for which the negative-log IC50 (pIC50) was 5.41.

For `CCN(CC)CCOC(=O)c1ccc(NC(=O)COc2cc(=O)n(CC)c3ccccc23)cc1`, the IC50 was 43.8 µM (inactive).

Consider `CCOc1ccc(-c2c[n+]3c(n2-c2ccccc2)CCCCC3)cc1`, for which the pIC50 was 5.48.

For the molecule `Cc1cc(-c2cc(C(=O)NCc3ccccc3)on2)nc(S(C)(=O)=O)n1`, the pIC50 was 4.81.

For the molecule `CCc1ccc(/C=C2/SC(=S)N(CCC(=O)Nc3ccc(C(=O)O)cc3)C2=O)cc1`, the IC50 is > 80 µM (inactive).

As for `Cc1ccc(C(=O)NNC(=O)CCCN2C(=O)/C(=C/c3ccccc3Cl)SC2=S)cc1`, the IC50 is 30.8 µM (inactive).

For `Cc1cccn2c(=O)c3cc(C(=O)NC4CCCCC4)c(=N)n(CCN4CCOCC4)c3nc12`, the IC50 was > 80 µM (inactive).

In the case of `N=c1ccn2c(n1)O[C@H]1[C@H](O)[C@@H](CO)O[C@H]12`, the IC50 was > 80 µM (inactive).

Take `O=C(NCCC1CCCCN1S(=O)(=O)c1ccc(Cl)cc1)C(=O)NCc1ccncc1` (stereo not given): the IC50 is 20.4 µM (inactive).

Regarding `CN(CC1CCCO1)S(=O)(=O)c1ccc(C(=O)Nc2nc3cc4c(cc3s2)OCO4)cc1` (stereo not given), the pIC50 is 6.44.

In the case of `Cc1[nH]c2ccccc2c1/C=N/Nc1nc(Nc2ccccc2)nc(N2CCOCC2)n1`, the IC50 is > 80 µM (inactive).

Consider `O=C(N/N=C/c1cccnc1)c1cc(-c2ccccc2OCc2ccccc2)n[nH]1`, for which the pIC50 is 4.90.

For the molecule `CCN(CC(=O)Nc1c(F)cccc1F)C(=O)c1cc(S(=O)(=O)N(CC)CC)ccc1N1CCCCC1`, the IC50 was 26.8 µM (inactive).

Turning to `Cc1cc2ccccn2c1C(=O)c1ccc(NN)c([N+](=O)[O-])c1`, the IC50 was 30.5 µM (inactive).

As for `CC(C)(C)C(=O)/C(=C/c1ccncc1)n1cncn1`, the IC50 is 20.9 µM (inactive).

Consider `COc1cccc(N2CCN(c3ncnc4c3[nH]c3ccc(F)cc34)CC2C)c1` (stereo not given), for which the pIC50 is 6.18.

For the molecule `CC1=CC(C)(C)Nc2ccc(OC(=O)c3ccco3)cc21`, the pIC50 was 4.79.

Turning to `COc1cc(C2C(C#N)=C(N)Oc3cc(N)ccc32)cc(OC)c1OC` (stereo not given), the IC50 was > 80 µM (inactive).

Consider `CCn1c(=O)cc(SCC(=O)N2CCCCC2)c2ccccc21`, for which the IC50 is > 80 µM (inactive).

Regarding `COc1ccc(/C=C2/SC(=S)N(CCC(=O)O)C2=O)cc1`, the IC50 is 24.3 µM (inactive).

On to `Cc1nc2cc(-c3ccccc3)nn2c(C)c1CCC(=O)N1CCC2(CC1)OCCO2`, for which the IC50 is 52 µM (inactive).

For `COCCNC(=O)CSCc1nc(-c2ccc(SC)cc2)oc1C`, the IC50 was 65.6 µM (inactive).

On to `Cc1cc(C)c(S(=O)(=O)NCc2ccncc2)c(C)c1`, for which the negative-log IC50 (pIC50) is 6.01.

`COc1cc(-c2nc(C(=O)NCC3CCCO3)cc3c2[nH]c2ccccc23)cc(OC)c1OC` (stereo not given): the pIC50 was 4.86.

Take `CCOC(=O)CNC(=O)CSc1nnc(NC(=O)c2ccc(C)cc2)s1`: the negative logarithm of the IC50 (pIC50) was 5.15.

Consider `CCc1ccc(-c2nnn(CCC(=O)OC)n2)cc1`, for which the pIC50 was 6.22.

Consider `Cc1ccc(/C=C2\SC(=S)N(CCCC(=O)NC3CCCC3)C2=O)cc1`, for which the IC50 was > 80 µM (inactive).

Turning to `Cn1c(=O)cc(OCCCC(=O)N2CCCCC2)c2ccccc21`, the IC50 is 60.2 µM (inactive).

On to `O=C(Oc1cccc(/C=N/Nc2nc(Nc3ccccc3)nc(N3CCOCC3)n2)c1)c1ccco1`, for which the IC50 was > 80 µM (inactive).

As for `Nc1ccc(-c2cc3ccccc3oc2=O)cc1`, the pIC50 was 5.45.

Regarding `O=C(CCCN1C(=O)/C(=C/c2ccccc2Cl)SC1=S)NNC(=O)c1ccc(Cl)cc1`, the IC50 is > 80 µM (inactive).

`COc1cc(-c2[nH]nc3c2C(c2ccco2)C(C#N)=C(N)O3)cc(OC)c1OC` (stereo not given): the IC50 is > 80 µM (inactive).

As to `COc1cc(/C(C)=N\NC(N)=S)cc(OC)c1OC`, the IC50 was > 80 µM (inactive).

With `CCN(CC)S(=O)(=O)c1ccc(N2CCOCC2)c(NC(=O)c2[nH]c(C)c(C(C)=O)c2C)c1`, the pIC50 is 5.23.

`Cc1ccc(-n2c(-c3ccccc3)c[n+]3c2CCc2ccccc2-3)c(C)c1`: the pIC50 is 5.67.

Turning to `C=CCn1c(O)c(C(CC)=NC(C)c2ccccc2)c(=O)[nH]c1=O` (stereo not given), the IC50 is 25 µM (inactive).

As for `Cc1ccc(/C=C2\SC(=S)N(CCCC(=O)Nc3ccc(O)cc3)C2=O)cc1`, the IC50 was > 80 µM (inactive).

`CCN1C(=O)c2cccc3c(S(=O)(=O)NCC4CCCO4)ccc1c23` (stereo not given): the IC50 was 54.5 µM (inactive).

Take `O=C(CCCc1nc(-c2ccccc2Cl)no1)NC1CCCC1`: the IC50 is 27.1 µM (inactive).

The values above are taken from PubChem BioAssay AID489022 (Sanford-Burnham Center for Chemical Genomics, 2010).
